According to patent US6645977B1 (priority 1997, dated 2003):
“And” between values parts separate entries of the source, which are not always exact repeats. Identical values can stand only once. Counter-ions that a name gives are not always drawn. Like-named read-outs stand apart in the source and are kept apart here.

What was measured:
[1] = target: nAChR labelled by 3H-α-bungarotoxin (α7 subunits) (Rattus norvegicus, UniProt Q05941); experiment: biochemical; format: binding
[2] = target: nAChRs comprised of α4 and β2 subunits (labelled by 3H-cytisine) (Rattus norvegicus, UniProt P09483+P12390); experiment: In vitro inhibition of 3H-cytisine binding
Method: In vitro inhibition of ^3H-cytisine binding
The predominant subtype with high affinity for nicotine is comprised of α4 and β2 subunits. nAChRs of the latter type can selectively be labelled by the nicotine modulator ^3H-cytisine.
Tissue Preparation: Preparations are performed at 0-4° C. unless otherwise indicated. […] The homogenate is centrifuged at 27,000×g for 10 min. The supernatant is discarded and the pellet is resuspended in fresh buffer and centrifuged a second time. The final pellet is resuspended in fresh buffer (35 ml per g of original tissue) and used for binding assays.
Assay: Aliquots of 500 μl homogenate are added to 25 μl of test solution and 25 μl of ^3H-cytisine (1 nM, final concentration), mixed and incubated for 90 min at 2° C. Non-specific binding is determined using (−)-nicotine (100 μM, final concentration). After incubation the samples are added 5 ml of ice-cold buffer and poured directly onto Whatman GF/C glass fibre filters under suction and immediately washed with 2×5 ml ice-cold buffer. The amount of radioactivity on the filters is determined by conventional liquid scintillation counting. Specific binding is total binding minus non-specific binding.

[3] = relative to morphine; cited from earlier work
[4] = rat cerebral cortex homogenate, 1 nM 3H-cytisine, 90 min at 2° C., read-out: 3H-cytisine IC50
[5] = read-out: 3H-α-bungarotoxin IC50
[6] = 3H-cytisine IC50, rat cerebral cortex homogenate, 1 nM 3H-cytisine, 90 min at 2° C.

Chain of nAChR labelled by 3H-α-bungarotoxin (α7 subunits) (Q05941 23-502): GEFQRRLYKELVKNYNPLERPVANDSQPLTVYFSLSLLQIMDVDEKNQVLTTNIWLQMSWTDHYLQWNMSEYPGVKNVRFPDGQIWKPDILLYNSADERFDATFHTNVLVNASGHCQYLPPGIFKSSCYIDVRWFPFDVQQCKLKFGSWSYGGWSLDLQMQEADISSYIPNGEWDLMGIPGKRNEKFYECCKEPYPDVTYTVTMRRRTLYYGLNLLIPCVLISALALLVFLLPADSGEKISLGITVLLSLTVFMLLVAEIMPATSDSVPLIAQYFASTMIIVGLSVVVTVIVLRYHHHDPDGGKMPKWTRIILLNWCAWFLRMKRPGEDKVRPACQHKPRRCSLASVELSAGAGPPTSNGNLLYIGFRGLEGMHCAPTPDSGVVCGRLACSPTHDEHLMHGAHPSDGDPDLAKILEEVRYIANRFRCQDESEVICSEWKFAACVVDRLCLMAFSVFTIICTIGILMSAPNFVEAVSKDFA
Chain of nAChRs comprised of α4 and β2 subunits (labelled by 3H-cytisine) (P09483 31-630): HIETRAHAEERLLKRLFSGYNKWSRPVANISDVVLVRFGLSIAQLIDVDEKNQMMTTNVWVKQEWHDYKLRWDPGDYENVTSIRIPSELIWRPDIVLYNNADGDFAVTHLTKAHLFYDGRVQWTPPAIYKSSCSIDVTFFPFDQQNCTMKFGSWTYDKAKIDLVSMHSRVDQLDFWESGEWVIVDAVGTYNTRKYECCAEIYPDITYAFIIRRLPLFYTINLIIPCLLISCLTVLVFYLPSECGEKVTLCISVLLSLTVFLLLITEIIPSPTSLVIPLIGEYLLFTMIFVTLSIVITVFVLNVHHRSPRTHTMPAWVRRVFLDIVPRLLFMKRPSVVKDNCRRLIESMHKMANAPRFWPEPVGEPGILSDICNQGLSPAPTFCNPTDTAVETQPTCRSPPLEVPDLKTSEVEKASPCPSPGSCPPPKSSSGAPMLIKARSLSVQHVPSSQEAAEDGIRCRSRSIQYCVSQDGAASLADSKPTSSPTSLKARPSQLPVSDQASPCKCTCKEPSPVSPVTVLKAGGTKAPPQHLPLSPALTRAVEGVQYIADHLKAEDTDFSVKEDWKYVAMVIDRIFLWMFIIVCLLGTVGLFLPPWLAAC
Chain of nAChRs comprised of α4 and β2 subunits (labelled by 3H-cytisine) (P12390 25-500): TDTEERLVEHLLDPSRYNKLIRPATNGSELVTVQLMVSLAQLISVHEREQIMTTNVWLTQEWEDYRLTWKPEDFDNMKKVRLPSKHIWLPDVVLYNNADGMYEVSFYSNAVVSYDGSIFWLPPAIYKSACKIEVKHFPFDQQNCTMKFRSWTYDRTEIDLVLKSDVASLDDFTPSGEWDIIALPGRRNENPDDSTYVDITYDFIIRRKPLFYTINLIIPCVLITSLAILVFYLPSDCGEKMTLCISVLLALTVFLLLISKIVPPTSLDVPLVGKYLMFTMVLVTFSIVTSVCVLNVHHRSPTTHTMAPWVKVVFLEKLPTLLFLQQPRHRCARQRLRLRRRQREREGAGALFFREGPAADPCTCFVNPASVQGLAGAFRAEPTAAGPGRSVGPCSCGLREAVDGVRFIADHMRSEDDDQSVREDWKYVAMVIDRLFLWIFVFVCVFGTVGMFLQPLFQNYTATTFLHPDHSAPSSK

Row | Structure (SMILES) | melting point | IC50 [1, 5] | also measured
1 | CC(=O)Nc1cccc(C2=CC3CCC(C2)N3C)c1.O=C(O)/C=C/C(=O)O (racemic) [Compound 3c, (±)-3-(3-Acetamidophenyl)-8-methyl-8-azabicyclo[3.2.1]oct-2-ene Fumaric Acid Salt] | 195.3 to 196.9 °C | – | IC50 [1]: 0.64 µM; IC50 [2, 4]: 17 µM
2 | CN1C2C=C(c3nccs3)CC1CC2.O=C(O)/C=C/C(=O)O (racemic) | 196.3 to 198.5 °C | – | –
3 | CN1C2C=C(c3cc4ccccc4s3)CC1CC2 (racemic) [Compound 2c, (±)-3-(2-Benzothienyl)-8-methyl-8-azabicyclo[3.2.1]oct-2ene] | 81 to 83.6 °C | 0.1 µM | IC50 [2, 6]: 63.8 µM
4 | CN1C2C=C(c3cccc(N)c3)CC1CC2.O=C(O)/C=C/C(=O)O (racemic) [Compound 4c, (±)-3-(3-Aminophenyl) 8-methyl-8-azabicyclo[3.2.1]oct-2-ene Fumaric Acid Salt] | 195.3 to 196.9 °C | 0.44 µM | IC50 [2]: 0.03 µM
5 | CN1C2C=C(c3nc4ccccc4s3)CC1CC2.O=C(O)/C=C/C(=O)O (racemic) | 195 to 196.8 °C | – | –
6 | CN1C2C=C(c3cnc4ccccc4c3)CC1CC2.O=C(O)/C=C/C(=O)O (racemic) [Compound 3a, (±)-8-Methyl-3-(3-quinolinyl)-8-azabicyclo[3.2.1]oct-2-ene Fumaric Acid Salt] | 140.8 to 143.8 °C | 1.44 µM | IC50 [2, 6]: 1.3 µM
7 | CN1C2C=C(c3sccc3Br)CC1CC2 (racemic) [Compound 1f, (±)-3-[2-(3-bromothienyl)]-8-methyl-8-azabicyclo[3.2.1]oct-2-ene Fumaric Acid Salt] | – | 0.082 µM | IC50 [2, 4]: 2.2 µM
8 | CN1C2C=C(c3ccc[se]3)CC1CC2 (racemic) | 176.8 to 178.3 °C | – | –
9 | C1=C(c2cccnc2)CC2CCC1N2Cc1ccccc1.O=C(O)/C=C/C(=O)O (racemic) [Compound 1a, (±)-8-Benzyl-3-(3-pyridyl)-8-azabicyclo[3.2.1]oct-2-ene Fumaric Acid Salt] | 142 to 146 °C | 0.5 µM | IC50 [2, 6]: 0.023 µM
10 | CN1C2C=C(c3csc4ccccc34)CC1CC2.O=C(O)/C=C/C(=O)O (racemic) | 146.6 to 149.5 °C | – | –
11 | C1=C(c2cc3ccccc3o2)CC2CCC1N2 (racemic) (as salt: fumaric acid salt) [Compound 1e, (±)-3-(2-Benzofuryl)-8-H-8-azabicyclo[3.2.1]oct-2-ene Fumaric Acid Salt] | 201 to 204 °C | – | –
12 | CN1C2C=C(c3ccsc3)CC1CC2.Cl (racemic) | 117 to 118.5 °C | – | –
13 | CN1C2C=C(c3cc4ccccc4s3)CC1CC2.Cl (racemic) [Compound 2d, (±)-3-(2-Benzothienyl)-8-methyl-8-azabicyclo[3.2.1]oct-2-ene Hydrochloride] | > 250 °C | 0.067 µM | IC50 [2, 6]: 110 µM
14 | CN1C2C=C(c3ccc(Cl)nc3)CC1CC2 (racemic) (as salt: fumaric acid salt) [Compound 5b, (±)-8-Methyl-3-[3-(6-chloro)pyridyl]-8-azabicyclo[3.2.1]oct-2-ene Fumaric Acid Salt] | 140 to 142 °C | – | –
15 | Clc1ccc(C2CC3CCC2N3)cn1 (stereo not shown) [Epibatidine] | – | – | approximate analgesic potency [3]: ~500 times that of morphine
16 | CN1C2C=C(c3cc4ccccc4o3)CC1CC2 (racemic) [Compound 1d, (±)-3-(2-Benzofuryl)-8-methyl-8-azabicyclo[3.2.1]oct-2-ene Fumaric Acid Salt] | – | 0.17 µM | IC50 [2, 6]: 120 µM
17 | CC(=O)C1=CC2CCC(C1)N2C.O=C(O)/C=C/C(=O)O (racemic) | 148.5 to 150 °C | – | –
18 | CCN1C2C=C(c3cc4ccccc4o3)CC1CC2.O=C(O)/C=C/C(=O)O (racemic) [Compound 3e, (±)-3-(2-Benzofuryl)-8ethyl-8-azabicyclo[3.2.1]oct-2-ene Fumaric Acid Salt] | 197 to 203 °C | 0.51 µM | IC50 [2, 6]: > 10 µM
19 | C1=C(c2cc3ccccc3o2)CC2CCC1N2 (racemic) [Compound 1e, (±)-3-(2-Benzofuryl)-8-H-8-azabicyclo[3.2.1]oct-2-ene Fumaric Acid Salt] | – | – | IC50 [1]: 0.8 µM; IC50 [2, 4]: > 10 µM
20 | CN1C2C=C(c3oc4ccccc4c3Br)CC1CC2 (racemic) [Compound 2f, (±)-3-[2-(3-Bromobenzofuryl)]-8-methyl-8-azabicyclo[3.2.1]oct-2-ene Fumaric Acid Salt] | – | 1.3 µM | IC50 [2, 4]: 30 µM
21 | CN1C2C=C(c3ccc(Cl)nc3)CC1CC2 (racemic) [Compound 5b, (±)-8-Methyl-3-[3-(6-chloro)pyridyl]-8-azabicyclo[3.2.1]oct-2-ene Fumaric Acid Salt] | – | – | IC50 [1]: 1.9 µM; IC50 [2, 4]: 0.02 µM
22 | CN1C2C=C(c3cc4ccccc4o3)CC1CC2.O=C(O)/C=C/C(=O)O (racemic) | 188.3 to 190.9 °C and 188.5 to 191.2 °C | – | –
23 | CN1C2C=C(c3cccs3)CC1CC2.O=C(O)/C=C/C(=O)O (racemic) | 141.5 to 143.5 °C | – | –
24 | CN1C2C=C(c3coc4ccccc34)CC1CC2.O=C(O)/C=C/C(=O)O (racemic) [Compound 4a, (±)-3-(3-Benzofuryl)-8-methyl-8-azabicyclo[3.2.1]oct-2-ene Fumaric Acid Salt] | 140.9 to 142.8 °C | 3.5 µM | IC50 [2, 6]: 2.7 µM
25 | CN1C2C=C(c3oc4ccccc4c3Br)CC1CC2 (racemic) (as salt: fumaric acid salt) [Compound 2f, (±)-3-[2-(3-Bromobenzofuryl)]-8-methyl-8-azabicyclo[3.2.1]oct-2-ene Fumaric Acid Salt] | 161.4 to 163.3 °C | – | –
26 | CN1C2C=C(c3sccc3-c3ccoc3)CC1CC2.O=C(O)/C=C/C(=O)O (racemic) | 187 to 189 °C | – | –
27 | CN1C2C=C(c3cccnc3)CC1CC2 (racemic) [Compound 2a, (±)-8-Methyl-3-(3-pyridyl)-8-azabicyclo[3.2.1]oct-2-ene Fumaric Acid Salt] | – | – | IC50 [1]: 0.55 µM; IC50 [2]: 0.022 µM
